For orientation: IC50 means the midpoint of a concentration-inhibition curve. In general, melting point refers to the temperature, or range, at which the solid turns liquid.

Experimental findings from patent publication US20120095022A1, “DERIVATIVES OF 10-AMINO-1,2,3,4-TETRAHYDROPYRIDO[2,1-A]ISOINDOL-6(10BH)-ONES, METHOD FOR PREPARATION THEREOF AND THERAPEUTIC USES THEREOF” (UNIVERSITE D'ORLEANS, priority 2009, published 2012) are described below.

For one data set, the system named is NCI (lung). Description: Cytotoxicity on human cells, automated nuclei counting: NCI. Type of data set: cell-based. To be noted: exposed 24 h to 48 h, 0.1 to 25 μM. In short, it runs like this: (§1)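 Read-out: automated imaging analysis. Cells in DMEM or RPMI + 10% FCS + pen-strep, 37° C, 5% CO2; 4.10^3 cells/well, 24 h settling before dosing at increasing concentrations. Vehicle controls: DMSO, max 1%.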

Another data set concerns PC3 (prostate). Description: Cytotoxicity on human cells, automated nuclei counting: PC3. Type of data set: cell-based. The following applies: PC-3, exposed 24 h to 48 h, 0.1 to 25 μM. In short, it runs like this: as §1
A further data set deals with DYRK1A (Homo sapiens, UniProt Q13627). Description: DYRK1A kinase inhibition (Woodtide substrate).
A further data set concerns MDA-MB 231 (breast). Description: Cytotoxicity on human cells, automated nuclei counting: MDA-MB 231. To be noted: MDA-MB 231 cells, exposed 24 h to 48 h, 0.1 to 25 μM. Type of data set: cell-based. In short, it runs like this: as §1
The test system of another data set is Caco (colon). Description: Cytotoxicity on human cells, automated nuclei counting: Caco. Format: cell-based. The following applies: exposed 24 h to 48 h, 0.1 to 25 μM. The procedure, abridged: as §1
In the next data set the test system is fibroblast. Description: Cytotoxicity on human cells, automated nuclei counting: fibroblast. Type of data set: cell-based. The following applies: exposed 24 h to 48 h, 0.1 to 25 μM. In short, it runs like this:
as §1

The subject of a further data set is HCT 116 (colon). Description: Cytotoxicity on human cells, automated nuclei counting: HCT 116. Format: cell-based. To be noted: HCT 116 cells, exposed 24 h to 48 h, 0.1 to 25 μM. In short, it runs like this: as §1
In the next data set the test system is Huh7 (liver). Nature of the data set: Cytotoxicity on human cells, automated nuclei counting: Huh7. Type of data set: cell-based. To be noted: Huh-7, exposed 24 h to 48 h, 0.1 to 25 μM. In short, it runs like this:
as §1

Another data set has as its target T1, CDK5/D25 (Homo sapiens, UniProt Q00535).
T1 construct: made in house
Nature of the data set: CDK5 kinase inhibition (33P-ATP, histone H1). To be noted: buffer C, 30° C., 15 μM ATP, read-out: IC50 μM Kinases CDK5. Format: biochemical. In short, it runs like this:
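Kinase reactions ran in buffer C (25 mM Mops pH 7.2, 15 mM MgCl2, 1 mM DTT, phosphatase inhibitors) with [33P]-ATP for 30 min at 30° C. Phosphorylated substrate was captured on P81 phosphocellulose filters, washed in phosphoric acid and counted by scintillation.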

For the next data set, the target named is CDK1/cyclin B. Nature of the data set: CDK1/cyclin B kinase inhibition (33P-ATP, histone H1). Format: biochemical, sea star. To be noted: buffer C, 30° C., 15 μM ATP, read-out: IC50 μM Kinases CDK1. The procedure: The protein kinase inhibition activities of the compounds of the invention are tested according to the following general procedure:
Buffer C: 60 mM β-glycerophosphate, 15 mM p-nitrophenyl-phosphate, 25 mM Mops (pH 7.2), 5 mM EGTA, 15 mM mgCl2, 1 mM DTT, 1 mM sodium vanadate and 1 mM phenylphosphate.
The controls were made with suitable dilutions of DMSO.
ATP (3.000 Ci/mmol.; 10 mCi/mL) in a final volume of 30 μL. After 30 mins of incubation at 30° C., 25 μL of supernatant aliquots were deposited on phosphocellulose Whatman P81 paper pieces of 2.5×3 cm, and after 20 seconds, the filters were washed five times (for at least 5 minutes each time) in a solution of 10 mL of phosphoric acid/1 litre of water. The wet filters were counted in the presence of 1 mL of scintillation fluid ACS (Amersham).

The target of another data set is GSK-3αβ. Description: GSK-3 kinase inhibition (GS-1 substrate). To be noted: read-out: IC50 μM Kinases GSK3, buffer A, 30° C., 15 μM ATP.

T1 sequence (Q00535 whole entry): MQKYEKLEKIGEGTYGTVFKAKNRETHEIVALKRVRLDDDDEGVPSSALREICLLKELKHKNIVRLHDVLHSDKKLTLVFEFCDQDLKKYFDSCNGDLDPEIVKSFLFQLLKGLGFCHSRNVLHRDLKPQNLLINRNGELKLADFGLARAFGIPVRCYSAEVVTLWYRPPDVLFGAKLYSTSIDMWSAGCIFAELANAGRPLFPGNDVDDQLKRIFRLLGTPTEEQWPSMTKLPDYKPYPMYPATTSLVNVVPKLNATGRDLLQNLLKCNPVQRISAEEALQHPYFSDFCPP
T1 sequence (Q15078 99-307 partner limits assumed): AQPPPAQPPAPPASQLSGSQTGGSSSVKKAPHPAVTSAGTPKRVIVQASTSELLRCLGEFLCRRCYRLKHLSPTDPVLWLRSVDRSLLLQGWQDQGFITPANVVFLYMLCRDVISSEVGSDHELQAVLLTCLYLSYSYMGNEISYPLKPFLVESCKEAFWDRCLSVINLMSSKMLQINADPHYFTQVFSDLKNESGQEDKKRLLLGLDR

Take `O=C(Nc1cc(-c2ccccc2)on1)Nc1cccc2c1C1CCCCN1C2=O` (stereo not drawn) [Compound 25, 1-(6-oxo-1,2,3,4,6,10b-hexahydropyrido[2,1-a]isoindol-10-yl)-3-(5-phenyl-isoxazol-3-yl)urea]: the melting point stood at 248 °C. Moreover, the IC50 with NCI (lung) came to 1.5 µM. This compound came in with an IC50 in the data set with PC3 (prostate) of 0.1 µM. Also, the IC50 against DYRK1A is more than 10000 nM. Besides, the IC50 in the data set on MDA-MB 231 (breast) was found to be 0.2 µM. The compound further registered an IC50 in the data set on Caco (colon) of 0.1 µM. Moreover, the IC50 in the data set on fibroblast was determined as 0.1 µM. For the same compound, the IC50 in the data set on HCT 116 (colon) was found to be 0.03 µM. In the data set with Huh7 (liver), it took 0.25 µM to reach half-maximal inhibition (IC50). Further, the IC50 at CDK5/D25 worked out at 1.5 µM. Further, the IC50 on CDK1/cyclin B is more than 10 µM. Further, on GSK-3αβ, the IC50 worked out at 0.27 µM.
Compound `O=C(Nc1ccccn1)Nc1cccc2c1C1CC3(CCN1C2=O)SCCS3` (stereo not drawn) [Compound 16, 1-(6′-oxo-3′,4′,6′,10b′-tetrahydro-1′H-spiro[[1,3]dithiolane-2,2′-pyrido[2,1-a]isoindole]-10′-yl)-3-(pyridin-2-yl)urea] came in with a melting point of 242 °C. Besides, 25 µM corresponded to half-maximal inhibition in the data set with NCI (lung) (IC50). In the data set on PC3 (prostate), this compound registered an IC50 of 6 µM. Also, on DYRK1A, the IC50 was more than 10000 nM. The IC50 with MDA-MB 231 (breast) turned out to be 20 µM. The IC50 with Caco (colon) came out at 15 µM. This compound also yielded an IC50 in the data set on fibroblast of more than 25 µM. The same compound had a concentration for half-maximal inhibition (IC50) in the data set on HCT 116 (colon) of 10 µM. The IC50 in the data set with Huh7 (liver) was found to be 15 µM. Further, the IC50 at CDK5/D25 worked out at 0.24 µM. The IC50 at CDK1/cyclin B amounted to 0.22 µM. In addition, on GSK-3αβ, the IC50 came to 0.033 µM.
With `O=C(Nc1cnccn1)Nc1cccc2c1C1CC3(CCN1C2=O)SCCS3` (stereo not drawn) [Compound 17, 1-(6′-Oxo-3′,4′,6′,10b′-tetrahydro-1′H-spiro[[1,3]dithiolane-2,2′-pyrido[2,1-a]isoindole]-10′-yl)-3-(pyrazin-2-yl)urea], the melting point came to 236 °C. This compound also registered an IC50 in the data set with NCI (lung) of 0.4 µM. Also, the midpoint of inhibition with PC3 (prostate), the IC50, lay at 0.6 µM. Further, the IC50 on DYRK1A is more than 10000 nM. The compound further came in with an IC50 with MDA-MB 231 (breast) of 0.15 µM. Also, it took 0.5 µM to reach half-maximal inhibition with Caco (colon) (IC50). Besides, in the data set on fibroblast, the midpoint of inhibition, the IC50, lay at 0.8 µM. In the data set with HCT 116 (colon), this compound yielded an IC50 of 0.1 µM. Moreover, in the data set with Huh7 (liver), half-maximal inhibition (IC50) was put at 0.1 µM. Moreover, at CDK5/D25, the IC50 was determined as 0.15 µM. In addition, on CDK1/cyclin B, the IC50 was found to be 0.13 µM. Also, the IC50 on GSK-3αβ is 0.044 µM.
